Square brackets hold non-standard residues; d marks the D form. Peptide text beside a SMILES is read from it. * marks the point of attachment. Sta = CC(C)C[C@H](N)[C@@H](O)CC(=O)O; Isovaleryl = CC(C)CC(=O)*; CH2Cl = ClC*
B1: recombinant tripeptidyl peptidase 1 (TPP1) (protein)
chain: LHLGVTPSVIRKRYNLTSQDVGSGTSNNSQACAQFLEQYFHDSDLAQFMRLFGGNFAHQASVARVVGQQGRGRAGIEASLDVQYLMSAGANISTWVYSSPGRHEGQEPFLQWLMLLSNESALPHVHTVSYGDDEDSLSSAYIQRVNTELMKAAARGLTLLFASGDSGAGCWSVSGRHQFRPTFPASSPYVTTVGGTSFQEPFLITNEIVDYISGGGFSNVFPRPSYQEEAVTKFLSSSPHLPPSSYFNASGRAYPDVAALSDGYWVVSNRVPIPWVSGTSASTPVFGGILSLINEHRILSGRPPLGFLNPRLYQQHGAGLFDVTRGCHESCLDEEVEGQGFCSGPGWDPVTGWGTPNFPALLKTLLNP

Columns and labels:
[1] = system: tri-amino peptidase activity in mucinous cyst fluid; experiment: MSP-MS assay of mucinous cyst fluid with protease inhibitors; type: biochemical, human; conditions: 2 μmol/L pepstatin; for effect on tri-amino peptidase activity (cleavage after third amino acid): pH 3.5, 10 μmol/L AAF-CMK
Procedure: The MSP-MS assay was performed as described previously (Ivry et al., 2017; O'Donoghue et al., 2012). Cyst fluid protein concentration was first determined through the BCA assay (Thermo Fisher, 23225). Cyst fluid samples were then diluted to 100 μg/mL in pH 3.5 acetate buffer or pH 7.5 phosphate buffer. The 228 tetradecapeptide was split into two pools of 114 peptides each and diluted to 1 μmol/L in either acetate or phosphate buffer. Equal volumes of diluted cyst fluid and peptide pools were combined and incubated at room temperature. After 15 and 60 minutes, 30 μL aliquots were removed and protease activity was quenched with 8 mol/L guanidinium hydrochloride. Aliquots were then desalted using C18 tips (Rainin). The following inhibitors were included in specified MSP-MS assays: 1 mmol/L AEBSF (Sigma, A8456), 2 mmol/L E64 (Sigma, E3132), 2 μmol/L pepstatin (Sigma, P5318), 2 mmol/L 1,10-phenanthroline (Sigma, 131337), and 10 μmol/L AAF-CMK (Enzo, BML-PI123).
Mass spectrometry analysis was performed with an LTQ Orbitrap XL Mass Spectrometer (Thermo Fisher) coupled to an Ultra Performance Liquid Chromatography (UPLC) System (Waters). Peptides were separated over a C18 column (Thermo Fisher, ES800) with a 65-minute linear gradient from 2%-30% acetonitrile. MS spectra were acquired over an m/z range of 325-1,500 and MS/MS spectra were obtained for the six most intense precursor ions by collision-induced dissociation (CID). Peak lists were generated using MSConvert and searched in Protein Prospector v. 5.10.0 against a database containing the sequences from the 228 tetradecapeptide library. Searches used a mass tolerance of 20 ppm for precursors and 0.8 Da for fragments. The following variable modifications were allowed: N-terminal pyroglutamate conversion from glutamine or glutamate and oxidation of tryptophan, proline, and tyrosine. Search outputs were then processed using the MSP-xtractor software (http://www.craiklab.ucsfedu/extractor.html). […] Spectral counts were used for relative quantification of MSP-MS results.

[2] = molecular target: most rapidly cleaved internally quenched fluorescent TPP1 substrate (P3 to P4' sequence from the MSP-MS library, lysine-fluorophore in P1)

Molecule | number of detected peptide cleavages at other positions enriched in mucinous cysts (B6, B8, B9, B10) ([1]; acidic pH) | effect on tri-amino peptidase activity (cleavage after third amino acid) [1] | kcat/Km (cleavage of internally quenched fluorescent substrate, fluorescence assay, pH 4.5) [2]
CC(C)CC(=O)N[C@H](C(=O)N[C@H](C(=O)N[C@@H](CC(C)C)[C@@H](O)CC(=O)N[C@@H](C)C(=O)N[C@@H](CC(C)C)[C@@H](O)CC(=O)O)C(C)C)C(C)C [pepstatin] (Isovaleryl-VV[Sta]A[Sta]-OH) | decrease | not inhibited | –
C[C@H](N)C(=O)N[C@@H](C)C(=O)N[C@@H](Cc1ccccc1)C(=O)CCl [tripeptide chloromethylketone inhibitor, Ala-Ala-Phe-chloromethylketone] (H-Ala-Ala-Phe-CH2Cl) | – | almost completely ablated | –
B1 | – | – | kcat/Km of 2.5 µmol^-1s^-1

Source: US20220381784A1, “SYSTEMS COMPRISING SUBSTRATES AND METHODS OF USING THE SAME FOR DETECTION OF PANCREATIC CANCERS” (THE REGENTS OF THE UNIVERSITY OF CALIFORNIA, priority 2019, published 2022)
